From ChEMBL document CHEMBL3632525, “Decorated 6,6,7,7-tetrahydro-1H,1H-2,3-biindole scaffold as promising candidate for recognition of the CDK2 allosteric site” (Medchemcomm, 2015)
Activity calls are given as the source filed them. The calls are words filed in the database; no cut-off is given here.

Legend:
Vero [1] = assay: Cytotoxicity against African green monkey Vero cells assessed as reduction of cell viability at 80 to 100 uM by CellTiter-Glo luminescent assay; assay type: cell-based; conditions: chlorocebus sabaeus, TDE = time-dependent effect
HEp-2 [2] = assay: Cytotoxicity against human Hep2 cells assessed as reduction of cell viability at 80 to 100 uM by CellTiter-Glo luminescent assay; assay type: functional, cell-based; conditions: TDE = time-dependent effect
HEK-293T [3] = assay: Cytotoxicity against HEK293T cells assessed as reduction of cell viability at 80 to 100 uM by CellTiter-Glo luminescent assay; assay type: functional, cell-based; conditions: Homo sapiens, TDE = time-dependent effect
Vero [4] = assay: Cytotoxicity against African green monkey Vero cells assessed as reduction of cell viability after 24 to 72 hrs by CellTiter-Glo luminescent assay; assay type: cell-based; conditions: chlorocebus sabaeus
HEp-2 [5] = assay: Cytotoxicity against human Hep2 cells assessed as reduction of cell viability after 24 to 72 hrs by CellTiter-Glo luminescent assay; assay type: functional, cell-based
HEK-293T [6] = assay: Cytotoxicity against HEK293T cells assessed as reduction of cell viability after 24 to 72 hrs by CellTiter-Glo luminescent assay; assay type: functional, cell-based; conditions: Homo sapiens
Vero [7] = assay: Inhibition of CDK2 phosphorylation in African green monkey Vero cells at 100 uM after 24 hrs by Western blot analysis relative to control; assay type: cell-based; conditions: Chlorocebus sabaeus
[8] = biological target: T1, Cyclin-dependent kinase 2 (Homo sapiens, UniProt P24941); assay: Inhibition of CDK2 phosphorylation in human Hep2 cells at 100 uM after 24 hrs by Western blot analysis relative to control; assay type: cell-based; conditions: HEp-2
[9] = biological target: T1, Cyclin-dependent kinase 2; assay: Inhibition of CDK2 phosphorylation in HEK293T cells at 100 uM after 24 hrs by Western blot analysis relative to control; assay type: cell-based; conditions: HEK-293T
Vero [10] = assay: Inhibition of cyclin E phosphorylation in African green monkey Vero cells at 100 uM after 24 hrs by Western blot analysis relative to control; assay type: cell-based; conditions: Chlorocebus sabaeus
[11] = biological target: G1/S-specific cyclin-E1 (Homo sapiens) (UniProt P24864); assay: Inhibition of cyclin E phosphorylation in human Hep2 cells at 100 uM after 24 hrs by Western blot analysis relative to control; assay type: cell-based; conditions: HEp-2
G1/S-specific cyclin-E1 (Homo sapiens), sequence (P24864 whole entry): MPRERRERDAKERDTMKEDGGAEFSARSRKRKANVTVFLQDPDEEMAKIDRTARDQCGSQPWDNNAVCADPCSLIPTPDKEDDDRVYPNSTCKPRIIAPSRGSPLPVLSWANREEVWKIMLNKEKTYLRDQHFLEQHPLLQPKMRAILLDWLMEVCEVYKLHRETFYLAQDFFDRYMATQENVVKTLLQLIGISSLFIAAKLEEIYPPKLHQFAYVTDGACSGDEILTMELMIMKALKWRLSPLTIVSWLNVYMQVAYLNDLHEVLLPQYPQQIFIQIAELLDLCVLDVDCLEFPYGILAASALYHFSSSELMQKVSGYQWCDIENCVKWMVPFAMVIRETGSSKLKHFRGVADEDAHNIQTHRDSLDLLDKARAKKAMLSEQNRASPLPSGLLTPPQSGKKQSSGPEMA

[12] = biological target: G1/S-specific cyclin-E1 (Homo sapiens) (UniProt P24864); assay: Inhibition of cyclin E phosphorylation in HEK293T cells at 100 uM after 24 hrs by Western blot analysis relative to control; assay type: cell-based; conditions: HEK-293T
Vero [13] = assay: Inhibition of CDK2/Cyclin E in African green monkey Vero cells assessed as reduction of hyperphosphorylated pRB expression at 100 uM after 24 hrs by Western blot analysis relative to control; assay type: cell-based; conditions: Chlorocebus sabaeus
[14] = biological target: T2, Cyclin-dependent kinase 2/cyclin E1 (Homo sapiens) (UniProt P24864+P24941); assay: Inhibition of CDK2/Cyclin E in human Hep2 cells assessed as reduction of hyperphosphorylated pRB expression at 100 uM after 24 hrs by Western blot analysis relative to control; assay type: cell-based; conditions: HEp-2
[15] = biological target: T2, Cyclin-dependent kinase 2/cyclin E1 (Homo sapiens); assay: Inhibition of CDK2/Cyclin E in HEK293T cells assessed as reduction of hyperphosphorylated pRB expression at 100 uM after 24 hrs by Western blot analysis relative to control; assay type: cell-based; conditions: HEK-293T
[16] = biological target: T2, Cyclin-dependent kinase 2/cyclin E1 (Homo sapiens); assay: Inhibition of CDK2/Cyclin E in HEK293T cells assessed as reduction of EGF-stimulated E2F pathway after 24 hrs by dual-Glo luciferase reporter gene assay relative to control; assay type: cell-based; conditions: HEK-293T
[17] = biological target: T1, Cyclin-dependent kinase 2; assay: Binding affinity to CDK2 allosteric site (unknown origin)

inhibition [8]: Active
inhibition [9]: Active
inhibition [11]: Active
inhibition [12]: Active
inhibition [14]: Active
inhibition [15]: Active
inhibition [16]: Dose-dependent effect
IC50 [17]: > 91 µM
SMILES: Cc1[nH]c2c(c1C1(C)NC3=C(C(=O)CC(c4ccccc4)C3)C1=O)C(=O)CC(c1ccccc1)C2 (configuration not stated)
Activity (Vero [1]): tde
Activity (HEp-2 [2]): tde
Activity (HEK-293T [3]): tde
Activity (Vero [4]): Dose-dependent effect
Activity (HEp-2 [5]): Dose-dependent effect
Activity (HEK-293T [6]): Dose-dependent effect
inhibition (Vero [7]): Active
inhibition (Vero [10]): Active
inhibition (Vero [13]): Active
